From patent publication US8202998B2, “Salts of benzimidazolyl pyridyl ethers and formulations thereof” (Novartis AG, priority 2006, dated 2012)

Legend:
[1] = Stability: degradation products (DP) and appearance (color) under stress conditions; assay type: physicochemical; design: key to CL: A: No change of color; B: Slight discoloration; C: Medium discoloration; D: Strong discoloration; ↓: Suspension; *: Clear solution after stress test; —: no change; x: test not performed
Protocol: Column: Symmetry C18 (Waters), 3.5 μm, 3×150 mm
Mobile phase: A=0.1% TFA in water; B=acetonitrile
Gradient: 20 to 100% B in 10 minutes
Column temperature: 40° C.
Stability of the three salts with respect to color and degradation products were assessed under various conditions.

[2] = Determination of solubility at 25° C.; assay type: physicochemical; conditions: for solubility: thermodynamic from solid; for Solid: line after Water under Solubility; for Aqueous solubility (in words): summary of Table 8
Protocol: Excess solids were equilibrated in each solvent for over 24 hours at 25° C.±0.1. Concentration in aqueous supernatant was measured by UV and HPLC and concentrations in organic solvents by gravimetry.

[3] = Intrinsic dissolution rate; assay type: physicochemical; conditions: 37° C.
Protocol: The intrinsic dissolution rate measurements were carried out in 0.5 cm^2 VanKel die assemblies and a pellet pressure of 1 ton. The dissolution was measured using a Cary 50 spectrophotometer with a stirring rate of 200 rpm. The solution medium was held at 37° C. and measurements were made at 276 nm.

[4] = Hygroscopicity (sorption/desorption); assay type: physicochemical; conditions: for Hygroscopicity: After 1 day at 80% r.h. / Hygroscopicity: After 1 day at 95% r.h.: 25° C.
Protocol: Sorption/desorption isotherms were measured using VTI vapor sorption device (DVS-1). Measurements were carried out at 25° C.

[5] = Polymorphism behavior: crystal modification after 24 hours equilibration; assay type: physicochemical
Protocol: A suspension of 6 mg of drug substance in 300 μl of solvent is prepared. Samples are agitated for ≧24 hour at 22° C.±2° C. The solids are collected and investigated for changes.

[6] = pH of 1% solution or suspension; assay type: physicochemical; conditions: In water
[7] = Thermogravimetry / loss on drying; assay type: physicochemical; conditions: for Loss on drying by TG: As is; for Thermogravimetry (weight loss in %): Heating rate 20 K/min
[8] = Effect of grinding on morphic properties; assay type: physicochemical
[9] = Aqueous solubility of salts in deionized water; conditions: for solubility / solubility at 48 h: deionized water, water, thermodynamic from solid; for pH: pH of the saturated aqueous solutions
[10] = Bioavailability study of API and salts of API in dogs; assay type: in vivo, beagle dogs; conditions: single 100 mg oral dose; for AUC(0-inf) / Cmax / half-life / Tmax: beagle, dog, plasma; for AUC(0-inf) / Cmax / half-life / Tmax / Tlag: fasting; for AUC(0-inf) / Cmax / half-life: mean and sd; for Tmax / Tlag: median; for Absolute F: relative to an iv dose of 1.25 mg/kg
Protocol: For comparison, a microemulsion of the free base was also studied. The study was performed with 4 dogs, weighing 9-15 kg each. A crossover design with a washout period of at least 1 week was used. The dogs were given a single oral dose of 100 mg of test compound, administered under fasting conditions.

[11] = 0.1% solutions or suspensions, 1 week 80° C. or 50° C., Methanol
[12] = 0.1% solutions or suspensions, 1 week 80° C. or 50° C., Water
[13] = 1-2 weeks 50° C., tight container, 1% in mixture 1
[14] = 1-2 weeks 50° C., tight container, 1% in mixture 2
[15] = 1-2 weeks 50° C./75% r.h., 1% in mixture 1
[16] = 1-2 weeks 50° C./75% r.h., 1% in mixture 2
[17] = Solid stage, 1 week 80° C., tight container, Bulk (HPLC)
[18] = Solid state, 1 week 80° C./175% r.h, Bulk (HPLC)
[19] = Solid state, 1 week 80° C./, Bulk (HPLC)
[20] = Xenon light (approx. 1200 kLuxh), Bulk (HPLC)
[21] = 0.1N HCl, 25 °C, simulated gastric fluid, read-out: Solubility (approx. at 25° C.) (HPLC)
[22] = acetonitrile, 25 °C, organic solvent or mixture, read-out: Solubility (approx. at 25° C.)
[23] = aqueous medium at pH 3, 25 °C, pH 3, aqueous buffer, read-out: Solubility (approx. at 25° C.) (HPLC)
[24] = aqueous medium at pH 4.5, 25 °C, pH 4.5, aqueous buffer, read-out: Solubility (approx. at 25° C.) (HPLC)
[25] = methanol, 25 °C, organic solvent or mixture, read-out: Solubility (approx. at 25° C.)
[26] = water, 25 °C, water, read-out: Solubility (approx. at 25° C.) (HPLC)

CCS(=O)(=O)O.Cn1c(Nc2ccc(C(F)(F)F)cc2)nc2cc(Oc3ccnc(-c4ncc(C(F)(F)F)[nH]4)c3)ccc21 [Esylate, {1-methyl-5-[2-(5-trifluoromethyl-1H-imidazol-2-yl)-pyridin-4-yloxy]-1H-benzoimidazol-2-yl}-(4-trifluoromethyl-phenyl)amine ethanesulfonate]
CL [1, 11]: A | DP [1, 11]: 2.5% | DP ([1]; 0.1% solutions or suspensions, 1 week 80° C. or 50° C., Methanol, listed as esylate): 2.7% | CL [1, 12]: A↓ | DP [1, 12]: 0.4% | CL [1, 13]: A | DP [1, 13]: 0.5% | CL [1, 14]: A | DP [1, 14]: 0.6% | CL [1, 15]: A | DP [1, 15]: 1.8% | CL [1, 16]: A | DP [1, 16]: 0.8% | CL [1, 17]: A | DP [1, 17]: 0.5% | DP [1, 18]: 0.6% | CL [1, 19]: A | DP ([1]; Unstressed): 0.5% | CL [1, 20]: A | DP [1, 20]: 0.7% | solubility [2, 21]: 3700 µg/mL | solubility [2, 22]: 2100 µg/mL | solubility [2, 23]: 2.3 µg/mL | solubility [2, 24]: 3.7 µg/mL | Solid [2]: No change | solubility [2, 25]: > 50000 µg/mL | Measured pH ([2]; solubility sample in 0.1N HCl): 1.4 | Aqueous solubility (in words) [2]: significantly improves aqueous solubility at all pH levels | solubility [2, 26]: 60 µg/mL | Intrinsic dissolution rate ([3]; HCl 0.1N): 0.06 mg min^−1 cm^−2 | Intrinsic dissolution rate ([3]; Water): 0.0036 mg min^−1 cm^−2 | Hygroscopicity from moisture sorption profiles (in words) [4]: hygroscopic | Hygroscopicity: After 1 day at 80% r.h. [4]: 5.3 | Hygroscopicity: After 1 day at 95% r.h. [4]: 14.9 | Crystal modification after 24 hours equilibration (DSC/XRPD/TG) ([5]; 2-propanol): No change | Crystal modification after 24 hours equilibration (DSC/XRPD/TG) ([5]; Acetone): No change | Crystal modification after 24 hours equilibration (DSC/XRPD/TG) ([5]; Acetonitrile): No change | Crystal modification after 24 hours equilibration (DSC/XRPD/TG) ([5]; Ethanol): No change | Crystal modification after 24 hours equilibration (DSC/XRPD/TG) ([5]; Ethyl acetate): No change | Crystal modification after 24 hours equilibration (DSC/XRPD/TG) ([5]; Methanol): No change | Crystal modification after 24 hours equilibration (DSC/XRPD/TG) ([5]; PEG400): No change | Crystal modification after 24 hours equilibration (DSC/XRPD/TG) ([5]; Water): No change | pH of 1% solution or suspension [6]: 2.2 | Loss on drying by TG [7]: 2.1% | Thermogravimetry (weight loss in %) [7]: 2.1% | Effect of grinding [8]: No change

Cl.Cn1c(Nc2ccc(C(F)(F)F)cc2)nc2cc(Oc3ccnc(-c4ncc(C(F)(F)F)[nH]4)c3)ccc21 [Hydrochloride, {1-methyl-5-[2-(5-trifluoromethyl-1H-imidazol-2-yl)-pyridin-4-yloxy]-1H-benzoimidazol-2-yl}-(4-trifluoromethyl-phenyl)amine hydrochloride]
solubility [9]: 10 µg/mL | solubility at 48 h [9]: 457 µg/mL | pH [9]: 2.079

Cn1c(Nc2ccc(C(F)(F)F)cc2)nc2cc(Oc3ccnc(-c4ncc(C(F)(F)F)[nH]4)c3)ccc21.O=C(O)/C=C\C(=O)O [Maleate, {1-methyl-5-[2-(5-trifluoromethyl-1H-imidazol-2-yl)-pyridin-4-yloxy]-1H-benzoimidazol-2-yl}-(4-trifluoromethyl-phenyl)amine maleate]
CL [1, 11]: A | DP [1, 11]: 0.4% | CL [1, 12]: A↓ | DP [1, 12]: 0.3% | CL [1, 13]: A | DP [1, 13]: 0.4% | CL [1, 14]: A | DP [1, 14]: 0.4% | CL [1, 15]: A | DP [1, 15]: 1.1% | CL [1, 16]: A | DP [1, 16]: 0.5% | Stability in methanol (in words) ([1]; In methanol): stable | CL [1, 17]: A | DP [1, 17]: 0.7% | DP [1, 18]: 0.4% | CL [1, 19]: A | DP ([1]; Unstressed): 0.3% | CL [1, 20]: A | DP [1, 20]: 0.3% | solubility [2, 21]: 2300 µg/mL | solubility [2, 22]: 4700 µg/mL | solubility [2, 23]: 0.15 µg/mL | solubility [2, 24]: 0.03 µg/mL | Solid [2]: No change | solubility [2, 25]: > 50000 µg/mL | Measured pH ([2]; solubility sample at pH 3): 3.4 | Measured pH ([2]; solubility sample in 0.1N HCl): 1.4 | Aqueous solubility (in words) [2]: higher at low pH and lower in neutral conditions | solubility [2, 26]: 10 µg/mL | Intrinsic dissolution rate ([3]; HCl 0.1N): 0.03 mg min^−1 cm^−2 | Intrinsic dissolution rate ([3]; Water): 0.0076 mg min^−1 cm^−2 | Hygroscopicity from moisture sorption profiles (in words) [4]: slightly hygroscopic | Hygroscopicity: After 1 day at 80% r.h. [4]: 0.8 | Hygroscopicity: After 1 day at 95% r.h. [4]: 1.1 | Crystal modification after 24 hours equilibration (DSC/XRPD/TG) ([5]; 2-propanol): No change | Crystal modification after 24 hours equilibration (DSC/XRPD/TG) ([5]; Acetone): Change | Crystal modification after 24 hours equilibration (DSC/XRPD/TG) ([5]; Acetonitrile): Change | Crystal modification after 24 hours equilibration (DSC/XRPD/TG) ([5]; Ethanol): No change | Crystal modification after 24 hours equilibration (DSC/XRPD/TG) ([5]; Ethyl acetate): Change | Crystal modification after 24 hours equilibration (DSC/XRPD/TG) ([5]; Methanol): Change | Crystal modification after 24 hours equilibration (DSC/XRPD/TG) ([5]; PEG400): Change | Crystal modification after 24 hours equilibration (DSC/XRPD/TG) ([5]; Water): No change | AUC(0-inf) [10]: 29600 ± 5920 ng·h/mL | Cmax [10]: 1220 ± 320 ng/mL | half-life [10]: 18.8 ± 7.7 h | Tmax [10]: 4 h | Tlag [10]: 0.12 h | Absolute F [10]: 12.9 ± 2.6 | pH of 1% solution or suspension [6]: 2.7 | Loss on drying by TG ([7]; listed as maleate, maleate): 0.1% | Loss on drying by TG ([7]; maleate): 0.11% | Thermogravimetry (weight loss in %) [7]: 0.11% | Effect of grinding [8]: No change | solubility [9]: 17 µg/mL | solubility at 48 h [9]: 96 µg/mL | pH [9]: 2.415

CS(=O)(=O)O.Cn1c(Nc2ccc(C(F)(F)F)cc2)nc2cc(Oc3ccnc(-c4ncc(C(F)(F)F)[nH]4)c3)ccc21 [Mesylate, {1-methyl-5-[2-(5-trifluoromethyl-1H-imidazol-2-yl)-pyridin-4-yloxy]-1H-benzoimidazol-2-yl}-(4-trifluoromethyl-phenyl)amine methanesulfonate]
CL [1, 11]: A | DP [1, 11]: 2.7% | CL [1, 12]: A↓ | DP [1, 12]: 0.5% | CL [1, 13]: A | DP [1, 13]: 0.5% | CL [1, 14]: A | DP [1, 14]: 0.6% | CL [1, 15]: A | DP [1, 15]: 2% | CL [1, 16]: A | DP [1, 16]: 1.2% | CL [1, 17]: A | DP [1, 17]: 0.5% | DP [1, 18]: 0.8% | CL [1, 19]: A | DP ([1]; Unstressed): 0.5% | CL [1, 20]: A | DP [1, 20]: 0.6% | solubility [2, 21]: 5700 µg/mL | solubility [2, 22]: 4000 µg/mL | solubility [2, 23]: 0.5 µg/mL | solubility [2, 24]: 0.1 µg/mL | Solid [2]: No change | solubility [2, 25]: > 50000 µg/mL | Measured pH ([2]; solubility sample at pH 3): 3.6 | Measured pH ([2]; solubility sample in 0.1N HCl): 1.3 | Aqueous solubility (in words) [2]: significantly improves aqueous solubility at all pH levels | solubility [2, 26]: 70 µg/mL | Intrinsic dissolution rate ([3]; HCl 0.1N): 0.056 mg min^−1 cm^−2 | Intrinsic dissolution rate ([3]; Water): 0.0024 mg min^−1 cm^−2 | Hygroscopicity from moisture sorption profiles (in words) [4]: hygroscopic | Hygroscopicity: After 1 day at 80% r.h. [4]: 4.0 | Hygroscopicity: After 1 day at 95% r.h. [4]: 13.0 | Crystal modification after 24 hours equilibration (DSC/XRPD/TG) ([5]; 2-propanol): No change | Crystal modification after 24 hours equilibration (DSC/XRPD/TG) ([5]; Acetone): No change | Crystal modification after 24 hours equilibration (DSC/XRPD/TG) ([5]; Acetonitrile): No change | Crystal modification after 24 hours equilibration (DSC/XRPD/TG) ([5]; Ethanol): No change | Crystal modification after 24 hours equilibration (DSC/XRPD/TG) ([5]; Ethyl acetate): No change | Crystal modification after 24 hours equilibration (DSC/XRPD/TG) ([5]; Methanol): No change | Crystal modification after 24 hours equilibration (DSC/XRPD/TG) ([5]; PEG400): No change | Crystal modification after 24 hours equilibration (DSC/XRPD/TG) ([5]; Water): Change | AUC(0-inf) [10]: 54400 ± 14200 ng·h/mL | Cmax [10]: 1570 ± 530 ng/mL | half-life [10]: 21.4 ± 13 h | Tmax [10]: 5 h | Tlag [10]: 0.13 h | Absolute F [10]: 23.7 ± 6.2 | pH of 1% solution or suspension [6]: 2.0 | Loss on drying by TG [7]: 1.3% | Thermogravimetry (weight loss in %) [7]: 1.3% | Effect of grinding [8]: No change | solubility [9]: 4 µg/mL | solubility at 48 h [9]: 774 µg/mL | pH [9]: 1.992
